Values of other authors in patent US7645462B2, “Acupoint patch” (3T Herbtech, Inc., priority 2002, dated 2010).

What was measured:
[1] = system: arteria femoralis blood circulation; conditions: intravenous 50 mg/kg, sedated animals

Row | SMILES | arteria femoralis blood circulation [1] | external blood vessel resistance [1] | dilation of separated major arteries (separated major arteries)
1 | COc1cc(/C=C/C(=O)O)ccc1O.[Na] [ferulic acid sodium] | increased | reduced | –
2 | COc1cc(/C=C/C(=O)O)ccc1O [ferulic acid] | – | – | can dilate
